Results: patent publication US11186617B2, “Epitope” (HOYU CO., LTD., priority 2017, dated 2021)
“Also recorded” adds a separate entry of the source.

Legend:
[1] = test system: IgE antibody in the serum from a patient; assay: Epitope mapping (2): overlapping peptide library, ELISA; format: binding, human; details: overlapping peptide fragments, 10 amino acids in length; 10 μg/ml biotin-bound peptide; 2% serum from patient 1; FIG. 2
Procedure: Based on the sequences (SEQ ID NOs: 6 and 13) of the peptides to which the IgE antibody in the serum bound in a manner specific to a patient in the above (A), a library of overlapping peptide fragments (10 amino acids in length) was prepared. The library was prepared using the sequences where sequences of the previous sequence and the next sequence of the aforementioned peptides in the full-length amino acid sequence of ω-5 gliadin from bread wheat (SEQ ID NO: 51) were added to the aforementioned peptides, and epitope mapping was performed.
Each synthesized peptide was shifted by one amino acid. In other words, each peptide overlaps with the previous peptide and the next peptide, each by 9 amino acids.
The target peptide was synthesized on the amino-modified resin in a 96-well plate by a method similar to that described above for (A). Biotin was bound to the amino terminus of the synthesized target peptide, with the biotin and the peptide sandwiching amino caproic acid derived from Fmoc-Acp(6)-OH as a spacer.
Said library was used to measure whether each peptide fragment is bound by the IgE antibody in the serum from a patient due to an antigen-antibody reaction, or not, and identify a sequence common to the peptides bound by the IgE antibody from the patient, thereby determining a peptide having the shortest amino acid sequence that serves as an epitope. Measurement was performed by an ELISA method in accordance with the following procedures.
(1) 10 μg/ml biotin-bound peptide of the library was prepared in PBST solution and was shaken in an avidin-coated ELISA plate for one hour at room temperature.
(2) The plate was washed with PBST solution.
(3) The plate was shaken in PBST solution with 1% skimmed milk for one hour at room temperature.
(4) The plate was shaken in PBST solution with 2% serum and 1% skimmed milk for one hour at room temperature.
(5) The plate was washed with PBST solution.
(6) Anti-human IgE antibody-HRP (1:10,000, PBST solution with 1% skimmed milk) was added and the plate was shaken for one hour at room temperature.
(7) The plate was washed with PBST solution.
(8) 20 μl of TMB ELISA (manufactured by Thermo Fisher Scientific) was added and the plate was shaken for 15 minutes at room temperature.
(9) 20 μl of 2 M sulfuric acid was added to quench an enzymatic reaction.
(10) An absorbance at 450 nm was measured.
(SEQ ID NO: 15), a subsequence of ω-5 gliadin from bread wheat, was measured by the overlapping technique in the library prepared based on SEQ ID NO: 6 and the obtained result is shown in FIG. 2. […] (SEQ ID NO: 23), a subsequence of ω-5 gliadin from bread wheat, was measured by the overlapping technique in the library prepared based on SEQ ID NO: 13 and the obtained result is shown in FIG. 2.

[2] = test system: IgE antibody from the patient; assay: Epitope mapping (3): alanine scanning ELISA, patient serum; format: binding, human; details: alanine-substituted peptides; serum from patient 1; FIG. 3
Procedure: (§1) The amino acid sequence of SEQ ID NO: 22 and the amino acid sequence of SEQ ID NO: 29 identified in the above-mentioned (B) were subjected to a technique referred to as alanine scanning (Non Patent Literature 1). Specifically, a library of peptide fragments was prepared by a technique similar to that described above in (B), in which the peptide fragments were produced by substituting one amino acid at a time with alanine in each amino acid sequence of […], starting from the amino acid at an amino terminal side. Then, a technique similar to that described above in (B) was used to measure whether each peptide fragment was bound by the IgE antibody in the serum from a patient and a healthy subject, or not. When alanine substitution of an amino acid at a certain position led to loss or reduction of binding activity to the IgE antibody from the patient and development of binding activity to the IgE antibody from the healthy subject, the amino acid was determined to be an amino acid important for expression of inherent antigenicity or an amino acid affecting expression of inherent antigenicity. […] A common sequence important for expression of inherent antigenicity was discovered by this analysis.
(§2) The result of alanine scanning performed on the amino acid sequence of SEQ ID NO: 22 and the result of alanine scanning performed on the amino acid sequence of SEQ ID NO: 29 are shown in FIG. 3, respectively.

[3] = test system: IgE antibody from the healthy subject; assay: Epitope mapping (3): alanine scanning ELISA, healthy subject serum; format: binding, human; details: alanine-substituted peptides; sera from healthy individuals 1 and 2; FIG. 3
Procedure: as §1, §2

[4] = test system: anti-human IgE antibody as a secondary antibody; assay: Epitope mapping (3): alanine scanning ELISA, secondary antibody used alone; format: binding; details: alanine-substituted peptides, FIG. 3
Description: FIG. 3 is a diagram showing the result of investigation of positions important for exerting antigenicity in SEQ ID NOs: 22 and 29 by an alanine scanning technique. The number on the horizontal axis denotes a value of coloration intensity at 450 nm measured by an absorption spectrometer (Abs.). In this figure, a double wavy line denotes that a value is not shown, P1 denotes that the serum from patient 1 was used, N1 and N2 denote that the sera from healthy individuals 1 and 2 were used, and 2nd denotes that an anti-human IgE antibody as a secondary antibody was used alone.
as §1, §2

binding with the IgE antibody from the patient (absorbance at 450 nm) [1] | binding activity to the IgE antibody from the patient (absorbance at 450 nm) [2] | binding activity to the IgE antibody from the healthy subject (absorbance at 450 nm) [3] | binding activity to the anti-human IgE antibody as the secondary antibody (absorbance at 450 nm) [4] | Substance
strong binding |  |  |  | SEQ ID NO: 20: overlapping 10-amino-acid peptide fragment from SEQ ID NO: 15 library, contains SEQ ID NO: 22 (FPQQEFPQQQ; epitope candidate)
strong binding |  |  |  | SEQ ID NO: 26: overlapping 10-amino-acid peptide fragment from SEQ ID NO: 23 library, contains SEQ ID NO: 29 (FPQQQPPQQH; epitope candidate)
slightly weaker binding |  |  |  | SEQ ID NO: 27: overlapping 10-amino-acid peptide fragment from SEQ ID NO: 23 library, contains SEQ ID NO: 29 (QFPQQQPPQQ; epitope candidate)
slightly weaker binding |  |  |  | SEQ ID NO: 19: overlapping 10-amino-acid peptide fragment from SEQ ID NO: 15 library, contains SEQ ID NO: 22 (PQQEFPQQQQ; epitope candidate)
no binding |  |  |  | SEQ ID NO: 24: overlapping 10-amino-acid peptide fragment from SEQ ID NO: 23 library (QQQPPQQHQF; epitope candidate)
 | loss of binding activity |  |  | SEQ ID NO: 42: amino acid at position 1 in SEQ ID NO: 29 substituted with alanine (AQQQPPQQHQFPQQQ; Artificial Sequnece; modified epitope)
 | reduced binding activity | did not develop binding activity | did not develop binding activity | SEQ ID NO: 32: amino acid at position 5 in SEQ ID NO: 22 substituted with alanine (QQFPQQEFPAQQQFP; modified epitope)
 | retained binding activity | did not develop binding activity |  | SEQ ID NO: 39: amino acid at position 4 in SEQ ID NO: 29 substituted with alanine (PQQAPPQQHQFPQQQ; modified epitope)
no binding |  |  |  | SEQ ID NO: 28: overlapping 10-amino-acid peptide fragment from SEQ ID NO: 23 library (QQFPQQQPPQ; epitope candidate)
slightly weaker binding |  |  |  | SEQ ID NO: 17: overlapping 10-amino-acid peptide fragment from SEQ ID NO: 15 library, contains SEQ ID NO: 22 (QEFPQQQQFP; epitope candidate)
 | lost or reduced |  | developed binding activity | SEQ ID NO: 30: amino acid at position 7 in SEQ ID NO: 22 substituted with alanine (QQFPQQEFPQQAQFP; modified epitope)
 | lost or reduced | developed binding activity |  | SEQ ID NO: 33: amino acid at position 4 in SEQ ID NO: 22 substituted with alanine (QQFPQQEFAQQQQFP; modified epitope)
 | slightly increased binding activity | developed binding activity |  | SEQ ID NO: 34: amino acid at position 2 in SEQ ID NO: 22 substituted with alanine (QQFPQQAFPQQQQFP; modified epitope)
 | loss of binding activity |  | developed binding activity | SEQ ID NO: 40: amino acid at position 3 in SEQ ID NO: 29 substituted with alanine (PQAQPPQQHQFPQQQ; modified epitope)
strong binding |  |  |  | SEQ ID NO: 18: overlapping 10-amino-acid peptide fragment from SEQ ID NO: 15 library, contains SEQ ID NO: 22 (QQEFPQQQQF; epitope candidate)
no binding |  |  |  | SEQ ID NO: 16: overlapping 10-amino-acid peptide fragment from SEQ ID NO: 15 library (EFPQQQQFPQ; epitope candidate)
no binding |  |  |  | SEQ ID NO: 21: overlapping 10-amino-acid peptide fragment from SEQ ID NO: 15 library (QFPQQEFPQQ; epitope candidate)
strong binding |  |  |  | SEQ ID NO: 25: overlapping 10-amino-acid peptide fragment from SEQ ID NO: 23 library, contains SEQ ID NO: 29 (PQQQPPQQHQ; epitope candidate)

Substance | binding with the IgE antibody from the patient (absorbance at 450 nm) [1] | binding activity to the IgE antibody from the patient (absorbance at 450 nm) [2] | binding activity to the IgE antibody from the healthy subject (absorbance at 450 nm) [3] | binding activity to the anti-human IgE antibody as the secondary antibody (absorbance at 450 nm) [4]
SEQ ID NO: 41: amino acid at position 2 in SEQ ID NO: 29 substituted with alanine (PAQQPPQQHQFPQQQ; modified epitope) |  | a relatively low level of reduction of binding activity |  | 
SEQ ID NO: 7: amino acid at position 3 in SEQ ID NO: 22 substituted with alanine (QQFPQQEAPQQQQFP; epitope) |  | retained binding activity; also recorded: substantially increased binding activity | developed little binding activity | developed little binding activity
SEQ ID NO: 31: amino acid at position 6 in SEQ ID NO: 22 substituted with alanine (QQFPQQEFPQAQQFP; modified epitope) |  | slightly reduced binding activity | developed a relatively low level of binding activity | developed a relatively low level of binding activity
SEQ ID NO: 14: amino acid at position 5 in SEQ ID NO: 29 substituted with alanine (PQQQAPQQHQFPQQQ; epitope) |  | retained binding activity; also recorded: substantially increased binding activity | did not develop binding activity | 
